Test results as given in publication PMC7926923, “Identification of Active Site Residues of the Siderophore Synthesis Enzyme PvdF and Evidence for Interaction of PvdF with a Substrate-Providing Enzyme” (International Journal of Molecular Sciences, 2021).

How the values were obtained:
PvdF [1] = biological target: T1, PvdF (Pseudomonas aeruginosa, UniProt Q9I184); test: direct injection mass spectrometry of fOHOrn product; assay type: biochemical; details: 25 uM PvdF, 1 mM OHOrn, 1.5 mM fTHF, 10 mM HEPES pH 8.0, 30 C, 3 h
T1 construct: recombinant from E. coli BL21(DE3), His6 tag kept at N-terminus (His6PvdF, pET-DUET1; also all variants) or C-terminus (PvdFHis6, pET21a); IMAC and SEC; monomer

PvdF [2] = biological target: T1, PvdF; test: differential scanning fluorimetry, SYPRO Orange; assay type: binding; details: 10 uM protein, 1.5 mM fTHF, 10 mM HEPES pH 8.0; site not determined; also co-substrate in the activity assay

T1 sequence (Q9I184 entry or part of it): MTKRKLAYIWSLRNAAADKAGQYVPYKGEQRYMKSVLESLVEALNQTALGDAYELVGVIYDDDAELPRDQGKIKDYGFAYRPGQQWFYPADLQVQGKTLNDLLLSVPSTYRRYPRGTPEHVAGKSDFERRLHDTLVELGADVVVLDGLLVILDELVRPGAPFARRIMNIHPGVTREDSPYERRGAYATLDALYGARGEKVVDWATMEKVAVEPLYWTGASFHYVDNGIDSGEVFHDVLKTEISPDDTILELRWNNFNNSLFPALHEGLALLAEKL

Compound	direct injection mass spectrometry of fOHOrn product (PvdF [1])	thermal shift (PvdF [2])
N[C@@H](CCCNO)C(=O)O [L-OHOrn]	able to convert OHOrn to fOHOrn with fTHF as the co-substrate	
Nc1nc2c(c(=O)[nH]1)N[C@@H](CN(C=O)c1ccc(C(=O)N[C@@H](CCC(=O)O)C(=O)O)cc1)CN2 [N^10-formyltetrahydrofolate]		addition of fTHF resulted in a significant change in fluorescence of wild-type PvdF
